This is an account of results in paper PMC11467737, “Osteocalcin binds to a GPRC6A Venus fly trap allosteric site to positively modulate GPRC6A signaling” (FASEB BioAdvances, 2024).

Residue numbers refer to the chain shown, from its start. Bridge positions count the residues as written; N and C are the ends. Ends that are not written are not given here.

Format in all cases: cell-based
Experiment [1] has as its target T1, K352E hGPRC6A (Homo sapiens, UniProt Q5T6X5, K352E).
T1 construct: expressed in transfected cells; host or cells: HEK-293, pcDNA3
T1 sequence (Q5T6X5 19-926 K352E): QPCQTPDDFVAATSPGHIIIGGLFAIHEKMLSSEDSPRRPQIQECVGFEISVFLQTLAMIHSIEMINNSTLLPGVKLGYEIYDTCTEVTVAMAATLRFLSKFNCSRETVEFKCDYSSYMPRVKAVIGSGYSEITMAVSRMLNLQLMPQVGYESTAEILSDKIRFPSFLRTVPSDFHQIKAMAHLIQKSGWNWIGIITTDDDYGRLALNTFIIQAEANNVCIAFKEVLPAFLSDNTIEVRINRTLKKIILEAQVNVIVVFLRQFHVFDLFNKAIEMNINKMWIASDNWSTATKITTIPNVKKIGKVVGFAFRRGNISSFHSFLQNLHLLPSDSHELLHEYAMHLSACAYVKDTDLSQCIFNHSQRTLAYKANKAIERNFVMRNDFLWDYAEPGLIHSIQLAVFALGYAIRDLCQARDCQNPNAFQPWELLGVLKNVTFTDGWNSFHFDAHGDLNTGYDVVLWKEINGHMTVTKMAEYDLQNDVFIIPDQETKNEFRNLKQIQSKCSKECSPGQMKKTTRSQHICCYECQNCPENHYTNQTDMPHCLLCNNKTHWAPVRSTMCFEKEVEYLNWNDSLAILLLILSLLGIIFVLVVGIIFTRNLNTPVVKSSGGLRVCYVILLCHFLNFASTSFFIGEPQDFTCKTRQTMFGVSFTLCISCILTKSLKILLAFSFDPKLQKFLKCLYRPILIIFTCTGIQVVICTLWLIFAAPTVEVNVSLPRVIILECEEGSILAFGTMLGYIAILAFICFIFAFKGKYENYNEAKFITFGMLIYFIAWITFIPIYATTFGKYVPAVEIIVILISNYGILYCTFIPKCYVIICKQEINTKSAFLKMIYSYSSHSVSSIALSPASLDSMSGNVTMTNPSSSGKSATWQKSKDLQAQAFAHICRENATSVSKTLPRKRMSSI
The experiment is described as follows: cAMP accumulation in HEK-293 cells transfected with K352E hGPRC6A. The following applies: K352E mutant; for cAMP accumulation by Ocn small fragments: fragment at 20 nM, Figure 6C. As for the experimental part:
(§1) HEK‐293 transfected with human GPRC6A isoform cDNA plasmids cells (10^5 cells/well)[30] were cultured in 24‐well plates in DMEM supplemented with 10% fetal bovine serum and 1% penicillin/streptomycin (100 U/mL of penicillin and 100 μg/mL of streptomycin) for 48 h followed by 4 h incubation in DMEM/F12 containing 0.1% BSA and 0.5 mM IBMX to achieve quiescence and preventing cAMP degradation. Quiescent cells were treated with vehicle control, various ligands at concentration as indicated for 40 min at 37°C. Then, the reaction was stopped, and the cells lysed with 0.5 mL 0.1 N HCl. cAMP levels were measured by using Cyclic AMP EIA kit (Cayman Chemical; Ann Arbor, MA, USA) following the manufacture's protocol.
(§2) In‐vitro mutagenesis by PCR‐mediated recombination QuikChange II XL Site‐Directed Mutagenesis Kit (Agilent) was performed using the cDNA of human GPRC6A cloned in the vector pcDNA3 (Invitrogen) as a template. The primer sets are as follows. K352E.sen: […]; K352E.antisen: […]; H355P.sen: […]; H355P.antisen: […]; K352E/H355P.sen: […]; and K352E/H355P.antisen: […]. All mutants were confirmed by sequencing.
(Cyclic AMP is a second messenger, typically raised through Gs and lowered through Gi signalling.)

Experiment [2] deals with T2, H355P hGPRC6A (Homo sapiens, UniProt Q5T6X5, H355P).
T2 construct: expressed in transfected cells; host or cells: HEK-293, pcDNA3
T2 sequence (Q5T6X5 19-926 H355P): T1 sequence (Q5T6X5 19-926 K352E) with E334K, H337P
Kind of experiment: cAMP accumulation in HEK-293 cells transfected with H355P hGPRC6A. The following applies: H355P mutant; for cAMP accumulation by Ocn small fragments: fragment at 20 nM, Figure 6C. How it is done:
as §1, §2

Experiment [3] concerns the target T1, K352E hGPRC6A. Kind of experiment: ERK activation in HEK-293 cells transfected with K352E hGPRC6A. The following applies: K352E mutant; for ERK activation by Ocn small fragments: fragment at 20 nM, Figure 6D. How it is done: All culture reagents were from Invitrogen (Waltham, MA, USA). Human embryonic kidney HEK‐293 cells were obtained from American Type Culture Collection and cultured in DMEM medium supplemented with 10% fetal bovine serum and 1% Penicillin/Streptomycin (P/S). Briefly, HEK‐293 cells transfected with/without human GPRC6A isoforms cDNA plasmids were starved by overnight incubation in serum‐free DMEM/F12 containing 0.1% bovine serum albumin (BSA) and stimulated with various ligands at different doses. ERK activation was assessed 20 min after treatment by using ERK1/2 (phospho‐T203/Y204) ELISA Kit (Invitrogen; Waltham, MA, USA) corrected for the amount of total ERK using ERK1/2 (Total) ELISA Kit (Invitrogen; Waltham, MA, USA) to measure ERK levels.
as §2

With “REVCELNPDC (disulfide 4-10 (inferred)) [Ocn 20–29, synthesized human Ocn decapeptide fragment located in the middle of the protein]”, the “cAMP accumulation by Ocn small fragments” value in experiment [1] and in experiment [2] was “no response” in each case. Besides, the “ERK activation by Ocn small fragments” value in experiment [3] is on record as “no response”.
For “RFYGPV [Ocn 44–49, synthesized human Ocn C‐terminal hexapeptide]”, the “cAMP accumulation by Ocn small fragments” value in experiment [1] and in experiment [2] was “significantly attenuated” each time. For the same substance, the “ERK activation by Ocn small fragments” value in experiment [3] is “significantly attenuated”.
Turning to “osteocalcin (YLYQWLGAPVPYPDPLEPRREVCELNPDCDELADHIGFQEAYRRFYGPV; not fully specified; ends and bridges not checked; UniProt P02818 52-100, looked up) [Ocn 1–49, full human Ocn (49 aa) synthesized by BioMatik; methods also describe decarboxylated Ocn purified from bovine tibial bone, reference compound]”, the “cAMP accumulation, dose response of full-length Ocn, versus wild-type receptor” value in experiment [1] (Figure 6A) and in experiment [2] (Figure 6A) was “significantly decreased” in each case. Besides, in experiment [3] (Figure 6B), the “ERK phosphorylation, dose response of full-length Ocn, versus wild-type receptor” value was “significantly decreased”.
